Data published in patent publication US20220056043A1, “NITROGEN-CONTAINING FUSED CYCLIC COMPOUND, PREPARATION METHOD THEREFOR AND USE THEREOF” (SICHUAN KELUN-BIOTECH BIOPHARMACEUTICAL CO., LTD., priority 2019, published 2022).
Structures can show the parent of a compound that is named as a salt.

Assays:
[1] = system: THP1-defNLRP3 cells; experiment: Agonistic effect on the expression of IL-1β in NLRP3 deficient THP1 cells (THP1-defNLRP3) after PMA-induced differentiation (HTRF); assay type: cell-based, human; conditions: Homo sapiens, THP-1; IL-1β level, PMA-differentiated NLRP3 deficient THP1 cells, 6 hours; highest test concentration 30 μM; read-out: hNLRP3 EC50 (μM) (THP-1defNLRP3)
Description: Experimental Example 2: Agonistic Effect of the Compound of the Invention on the Expression of IL-1β in NLRP3 Deficient THP1 Cells (THP1-defNLRP3 Cells) after PMA-Induced Differentiation
In this test, a HTRF detection method was used to test the effect of the compound of the invention on the level of IL-1β in THP1-defNLRP3 cells to evaluate the specificity of the agonistic effect of the compound on hNLRP3 inflammasome or hNLRP3 inflammasome pathway.
Reagents: as described in Experimental Example 1
Cell: THP1-defNLRP3 (InvivoGen)
Kit: IL-1β assay kit (CISBIO)
1) THP1-defNLRP3 cells in a logarithmic growth phase were seeded in a T75 culture flask at a density of 5×10^5 cells/well, and cultured in a cell incubator at 37° C., 5% CO2 for 24 hours, and then 1 μM PMA was used to induce THP1-defNLRP3 suspension cells to become adherent macrophages. The medium was RPMI 1640 containing 10% heat-inactivated FBS and 0.05 mM β-mercaptoethanol.
2) The cells were induced and cultured for 24 hours. Then the adherent cells were trypsinized and centrifuged at 1000 rpm for 5 min. The supernatant was removed, and the cells were resuspended to a density of 2×10^6 cells/mL in RPMI 1640 medium containing 2% heat-inactivated FBS. 50 μL/well of the cell resuspension was taken and spread on a 96-well plate such that the number of cells in each well was 1×10^5.
3) An appropriate amount of 10 mM DMSO solution of the compound to be tested was taken and diluted to a concentration of 2× test concentration with RPMI 1640 medium containing 2% heat-inactivated FBS. 50 μL/well of the dilution was added to the cells in the 96-well plate, and mixed well. The plate was incubated in a cell incubator at 37° C., 5% CO2 for 6 hours. The supernatant was collected, and the level of IL-1β was measured in accordance with the instructions of the IL-1β detection kit.
4) EC50 was fitted by the GraphPad software log(agonist) vs. response—Variable slope four-parameter method.

[2] = biological target: T1, hTLR8 (Homo sapiens, UniProt Q9NR97); experiment: Agonistic effect on hTLR8, HEK-Blue hTLR8 cells, alkaline phosphatase secretion; assay type: cell-based; conditions: 16 hours
T1 construct: host or cells: HEK-Blue hTLR8 cells
T1 sequence (Q9NR97 27-1041): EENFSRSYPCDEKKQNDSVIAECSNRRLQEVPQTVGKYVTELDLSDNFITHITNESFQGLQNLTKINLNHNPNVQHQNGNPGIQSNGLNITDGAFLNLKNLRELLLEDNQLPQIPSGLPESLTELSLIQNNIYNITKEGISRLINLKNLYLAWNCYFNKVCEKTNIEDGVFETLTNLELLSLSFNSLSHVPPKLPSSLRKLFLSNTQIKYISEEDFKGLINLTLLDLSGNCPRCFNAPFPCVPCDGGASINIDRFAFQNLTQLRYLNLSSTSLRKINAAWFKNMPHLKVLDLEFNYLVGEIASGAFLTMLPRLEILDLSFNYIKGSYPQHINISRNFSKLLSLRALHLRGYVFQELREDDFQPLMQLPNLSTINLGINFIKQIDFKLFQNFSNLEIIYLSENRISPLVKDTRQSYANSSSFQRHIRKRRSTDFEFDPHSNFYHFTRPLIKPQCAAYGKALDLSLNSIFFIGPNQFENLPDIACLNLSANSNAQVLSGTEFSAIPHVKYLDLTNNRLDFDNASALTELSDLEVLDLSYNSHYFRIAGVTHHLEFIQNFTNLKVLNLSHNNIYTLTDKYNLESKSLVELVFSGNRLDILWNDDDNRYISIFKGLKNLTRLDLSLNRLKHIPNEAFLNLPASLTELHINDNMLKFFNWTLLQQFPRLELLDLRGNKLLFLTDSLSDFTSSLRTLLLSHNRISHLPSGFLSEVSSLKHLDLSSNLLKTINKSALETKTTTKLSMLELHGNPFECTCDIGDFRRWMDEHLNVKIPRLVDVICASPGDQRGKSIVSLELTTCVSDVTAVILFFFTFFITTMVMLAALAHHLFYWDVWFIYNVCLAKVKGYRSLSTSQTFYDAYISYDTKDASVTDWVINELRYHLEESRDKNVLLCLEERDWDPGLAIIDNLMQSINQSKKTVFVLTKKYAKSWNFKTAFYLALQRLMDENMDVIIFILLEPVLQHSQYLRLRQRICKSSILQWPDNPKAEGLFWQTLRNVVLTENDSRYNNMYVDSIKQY
Procedure: Experimental Example 4: Agonistic Effect of the Compound of the Invention on hTLR8
In this test, the secretion of alkaline phosphatase in HEK-Blue cells was measured to test the activating effect of the compound of the invention on TLR8 signaling pathway, so as to evaluate the specificity of the agonistic effect of the compound on NLRP3 pathway.
Reagents: DMEM (High glucose); FBS (fetal bovine serum) (Gibco); QUANTI-Blue/InvivoGen/rep-qb2
Cells: HEK-Blue™ hTLR8 cells (human TLR 8 cells) (InvivoGen) Experimental Procedures:
1) The HEK-Blue™ hTLR8 cells in a logarithmic growth phase were trypsinized and resuspended in the medium to a concentration of 2×10^6 cells/mL. 50 μL/well of the cell suspension was added to a 96-well plate. An appropriate amount of 10 mM DMSO solution of the compound to be tested was taken and diluted to a concentration of 2× test concentration with the medium. 50 μL/well was added to the cells in the 96-well plate. The plate was incubated in an incubator at 37° C. and 5% CO2 for 16 hours. The medium was DMEM (High glucose) containing 10% FBS. 2) After the cell incubation, 10 μL of cell culture supernatant was transferred to a 96-well plate. 90 μL/well of QUANTI-Blue detection solution was added, and the mixture was incubated at 37° C. for 3 hours. OD620 was read using a microplate reader.
3) The EC50 of the effect of the tested compound to stimulate hTLR8 was fitted by the GraphPad software log(agonist) vs. response—Variable slope four-parameter method.

Compound | EC50 [1] | EC50 [2]
Nc1cc(N[C@H]2CC[C@H](O)C2)c2sc(-c3ccn[nH]3)cc2n1 [Compound 26, (1S,3S)-3-((5-amino-2-(1H-pyrazol-5-yl)thieno[3,2-b]pyridin-7-yl)amino)cyclopentanol] | > 30 µM | > 100 µM
Nc1cc(N[C@@H]2CC[C@@H](O)C2)c2sc(-c3ccn[nH]3)cc2n1 [Compound 30s, (1R,3R)-3-((5-amino-2-(1H-pyrazol-5-yl)thieno[3,2-b]pyridin-7-yl)amino)cyclopentanol hydrochloride] | > 30 µM | > 100 µM
Nc1cc(N[C@@H]2CC[C@H](O)C2)c2sc(-c3ccn[nH]3)cc2n1 [Compound 31, (1S,3R)-3-((5-amino-2-(1H-pyrazol-5-yl)thieno[3,2-b]pyridin-7-yl)amino)cyclopentanol] | > 30 µM | > 100 µM
C[C@H](O)CNc1cc(N)nc2cc(-c3ccn[nH]3)sc12 [Compound 33] | > 30 µM | > 100 µM
Nc1cc(NC2CC(O)C2)c2sc(-c3ccn[nH]3)cc2n1 (centres unmarked) [Compound 40, 3-((5-amino-2-(1H-pyrazol-5-yl)thieno[3,2-b]pyridin-7-yl)amino)cyclobutanol] | > 30 µM | > 100 µM
CN1CC[C@H](Nc2cc(N)nc3cc(-c4ccn[nH]4)sc23)C1 [Compound 51, (S)—N^7-(1-methylpyrrolidin-3-yl)-2-(1H-pyrazol-5-yl)thieno[3,2-b]pyridine-5,7-diamine] | > 30 µM | > 100 µM
CC(=O)NCCNc1cc(N)nc2cc(-c3ccn[nH]3)sc12 [Compound 52] | > 30 µM | > 100 µM
CC(=O)NCCCNc1cc(N)nc2cc(-c3ccn[nH]3)sc12 [Compound 53] | > 30 µM | > 100 µM
CN1CCN(CCCNc2cc(N)nc3cc(-c4ccn[nH]4)sc23)CC1 [Compound 54, N^7-(3-(4-methylpiperazin-1-yl)propyl)-2-(1H-pyrazol-5-yl)thieno[3,2-b]pyridine-5,7-diamine] | > 30 µM | > 100 µM
Nc1cc(NCCN2CCOCC2)c2sc(-c3ccn[nH]3)cc2n1 [Compound 55, N^7-(2-morpholinoethyl)-2-(1H-pyrazol-5-yl)thieno[3,2-b]pyridine-5,7-diamine] | > 30 µM | > 100 µM
CN1CCN(CCNc2cc(N)nc3cc(-c4ccn[nH]4)sc23)CC1 [Compound 57, N^7-(2-(4-methylpiperazin-1-yl)ethyl)-2-(1H-pyrazol-5-yl)thieno[3,2-b]pyridine-5,7-diamine] | > 30 µM | > 100 µM
Nc1cc(NCCCNC(=O)C2CC2)c2sc(-c3ccn[nH]3)cc2n1 [Compound 58] | > 30 µM | > 100 µM
Nc1cc(NCc2ccccn2)c2sc(-c3ccn[nH]3)cc2n1 [Compound 59, 2-(1H-pyrazol-5-yl)-N^7-(pyridin-2-ylmethyl)thieno[3,2-b]pyridine-5,7-diamine] | > 30 µM | > 100 µM
Cn1ccc(CNc2cc(N)nc3cc(-c4ccn[nH]4)sc23)n1 [Compound 60, N^7-(1-methyl-1H-pyrazol-3-yl)methyl-2-(1H-pyrazol-5-yl)thieno[3,2-b]pyridine-5,7-diamine] | > 30 µM | > 100 µM
Nc1cc(NC2CCOC2)c2sc(-c3ccn[nH]3)cc2n1 (centres unmarked) [Compound 61, 2-(1H-pyrazol-5-yl)-N^7-(tetrahydrofuran-3-yl)thieno[3,2-b]pyridine-5,7-diamine] | > 30 µM | > 100 µM
CC1CN(CCNc2cc(N)nc3cc(-c4ccn[nH]4)sc23)CC(C)O1 (centres unmarked) [Compound 62] | > 30 µM | > 100 µM
Cn1cnc(CNc2cc(N)nc3cc(-c4ccn[nH]4)sc23)c1 [Compound 63, N^7-(1-methyl-1H-imidazol-4-yl)methyl-2-(1H-pyrazol-5-yl)thieno[3,2-b]pyridine-5,7-diamine] | > 30 µM | > 100 µM
Nc1cc(NCCNC(=O)C2CC2)c2sc(-c3ccn[nH]3)cc2n1 [Compound 64] | > 30 µM | > 100 µM
CC(=O)N(C)CCNc1cc(N)nc2cc(-c3ccn[nH]3)sc12 [Compound 73, N-(2-((5-amino-2-(1H-pyrazol-5-yl)thieno[3,2-b]pyridin-7-yl)amino)ethyl)-N-methylethanamide] | > 30 µM | > 100 µM
CC(=O)N(C)CCCNc1cc(N)nc2cc(-c3ccn[nH]3)sc12 [Compound 74, N-(3-((5-amino-2-(1H-pyrazol-5-yl)thieno[3,2-b]pyridin-7-yl)amino)propyl)-N-methylacetamide] | > 30 µM | > 100 µM
CN(CCNc1cc(N)nc2cc(-c3ccn[nH]3)sc12)C(=O)C1CC1 [Compound 75, N-(2-((5-amino-2-(1H-pyrazol-5-yl)thieno[3,2-b]pyridin-7-yl)amino)ethyl)-N-methylcyclopropionamide] | > 30 µM | > 100 µM
CN(CCCNc1cc(N)nc2cc(-c3ccn[nH]3)sc12)C(=O)C1CC1 [Compound 76, N-(3-((5-amino-2-(1H-pyrazol-5-yl)thieno[3,2-b]pyridin-7-yl)amino)propyl)-N-methylcyclopropane formamide] | > 30 µM | > 100 µM
CCC(=O)N(C)CCNc1cc(N)nc2cc(-c3ccn[nH]3)sc12 [Compound 88, N-(2-((5-amino-2-(1H-pyrazol-5-yl)thieno[3,2-b]pyridin-7-yl)amino)ethyl)-N-methylpropionamide] | > 30 µM | > 100 µM
CN1CCC(Nc2cc(N)nc3cc(-c4ccn[nH]4)sc23)CC1 [Compound 89, N^7-(1-methylpiperidin-4-yl)-2-(1H-pyrazol-5-yl)thieno[3,2-b]pyridine-5,7-diamine] | > 30 µM | > 100 µM
Nc1cc(NCCCO)c2sc(-c3ccncc3)cc2n1 [Compound 90, 3-((5-amino-2-(pyridin-4-yl)thieno[3,2-b]pyridin-7-yl)amino)-1-propanol] | > 30 µM | > 100 µM
